Source: ChEMBL document CHEMBL4622979, “Non-rigid Diarylmethyl Analogs of Baloxavir as Cap-Dependent Endonuclease Inhibitors of Influenza Viruses” (J Med Chem, 2020)

Tests used:
[1] = Selectivity ratio of CC50 for human HepG2 cells assessed as reduction in cell viability measured after 24 hrs in presence of glucose to CC50 for human HepG2 cells assessed as reduction in cell viability measured after 24 hrs in presence of galactose; format: cell-based
[2] = Half life in CD1 mouse plasma assessed as (12aR)-12-(Diphenylmethyl)-7-hydroxy-3,4,12,12a-tetrahydro-1H-[1,4]oxazino[3,4-c]pyrido[2,1-f ][1,2,4]triazine-6,8-dione level at 15 mg/kg, po administered as single dose measured up to 24 hrs by LC-MS/MS analysis; format: ADME, organism-based; conditions: in vivo
[3] = AUClast in CD1 mouse blood assessed as (12aR)-12-(Diphenylmethyl)-7-hydroxy-3,4,12,12a-tetrahydro-1H-[1,4]oxazino[3,4-c]pyrido[2,1-f ][1,2,4]triazine-6,8-dione level at 15 mg/kg, po administered as single dose measured up to 24 hrs by LC-MS/MS analysis; format: ADME, organism-based; conditions: in vivo
[4] = AUCinfinity in CD1 mouse blood assessed as (12aR)-12-(Diphenylmethyl)-7-hydroxy-3,4,12,12a-tetrahydro-1H-[1,4]oxazino[3,4-c]pyrido[2,1-f ][1,2,4]triazine-6,8-dione level at 15 mg/kg, po administered as single dose measured up to 24 hrs by LC-MS/MS analysis; format: ADME, organism-based; parameters: dose 15 mg/kg, time infinity, route oral; conditions: in vivo
[5] = Cmax in CD1 mouse liver assessed as (12aR)-12-(Diphenylmethyl)-7-hydroxy-3,4,12,12a-tetrahydro-1H-[1,4]oxazino[3,4-c]pyrido[2,1-f ][1,2,4]triazine-6,8-dione level at 15 mg/kg, po administered as single dose measured up to 24 hrs by LC-MS/MS analysis; format: ADME, organism-based; parameters: dose 15 mg/kg, route oral; conditions: in vivo
[6] = AUCinfinity in CD1 mouse liver assessed as (12aR)-12-(Diphenylmethyl)-7-hydroxy-3,4,12,12a-tetrahydro-1H-[1,4]oxazino[3,4-c]pyrido[2,1-f ][1,2,4]triazine-6,8-dione level at 15 mg/kg, po administered as single dose measured up to 24 hrs by LC-MS/MS analysis; format: ADME, organism-based; parameters: dose 15 mg/kg, route oral, time infinity; conditions: in vivo
[7] = Cmax in CD1 mouse kidney assessed as (12aR)-12-(Diphenylmethyl)-7-hydroxy-3,4,12,12a-tetrahydro-1H-[1,4]oxazino[3,4-c]pyrido[2,1-f ][1,2,4]triazine-6,8-dione level at 15 mg/kg, po administered as single dose measured up to 24 hrs by LC-MS/MS analysis; format: ADME, organism-based; parameters: dose 15 mg/kg, route oral; conditions: in vivo
[8] = MRTlast in CD1 mouse kidney assessed as (12aR)-12-(Diphenylmethyl)-7-hydroxy-3,4,12,12a-tetrahydro-1H-[1,4]oxazino[3,4-c]pyrido[2,1-f ][1,2,4]triazine-6,8-dione level at 15 mg/kg, po administered as single dose measured up to 24 hrs by LC-MS/MS analysis; format: ADME, organism-based; conditions: in vivo
[9] = Ratio of AUClast in CD1 mouse heart to plasma assessed as (12aR)-12-(Diphenylmethyl)-7-hydroxy-3,4,12,12a-tetrahydro-1H-[1,4]oxazino[3,4-c]pyrido[2,1-f ][1,2,4]triazine-6,8-dione level at 15 mg/kg, po administered as single dose measured up to 24 hrs by LC-MS/MS analysis; format: ADME, organism-based; conditions: other tissue
[10] = Ratio of AUClast in CD1 mouse lung to plasma assessed as (12aR)-12-(Diphenylmethyl)-7-hydroxy-3,4,12,12a-tetrahydro-1H-[1,4]oxazino[3,4-c]pyrido[2,1-f ][1,2,4]triazine-6,8-dione level at 15 mg/kg, po administered as single dose measured up to 24 hrs by LC-MS/MS analysis; format: ADME, organism-based; conditions: other tissue
[11] = Tmax in CD1 mouse trachea assessed as (12aR)-12-(Diphenylmethyl)-7-hydroxy-3,4,12,12a-tetrahydro-1H-[1,4]oxazino[3,4-c]pyrido[2,1-f ][1,2,4]triazine-6,8-dione level at 15 mg/kg, po administered as single dose measured up to 24 hrs by LC-MS/MS analysis; format: ADME, organism-based; conditions: in vivo
[12] = AUClast in CD1 mouse trachea assessed as (12aR)-12-(Diphenylmethyl)-7-hydroxy-3,4,12,12a-tetrahydro-1H-[1,4]oxazino[3,4-c]pyrido[2,1-f ][1,2,4]triazine-6,8-dione level at 15 mg/kg, po administered as single dose measured up to 24 hrs by LC-MS/MS analysis; format: ADME, organism-based; conditions: in vivo
[13] = Elimination rate constant in CD1 mouse small intestine assessed as (12aR)-12-(Diphenylmethyl)-7-hydroxy-3,4,12,12a-tetrahydro-1H-[1,4]oxazino[3,4-c]pyrido[2,1-f ][1,2,4]triazine-6,8-dione level at 15 mg/kg, po administered as single dose measured up to 24 hrs by LC-MS/MS analysis; format: ADME, organism-based; conditions: in vivo
[14] = Half life in CD1 mouse spleen assessed as (12aR)-12-(Diphenylmethyl)-7-hydroxy-3,4,12,12a-tetrahydro-1H-[1,4]oxazino[3,4-c]pyrido[2,1-f ][1,2,4]triazine-6,8-dione level at 15 mg/kg, po administered as single dose measured up to 24 hrs by LC-MS/MS analysis; format: ADME, organism-based; conditions: in vivo
[15] = AUClast in CD1 mouse spleen assessed as (12aR)-12-(Diphenylmethyl)-7-hydroxy-3,4,12,12a-tetrahydro-1H-[1,4]oxazino[3,4-c]pyrido[2,1-f ][1,2,4]triazine-6,8-dione level at 15 mg/kg, po administered as single dose measured up to 24 hrs by LC-MS/MS analysis; format: ADME, organism-based; conditions: in vivo
[16] = Elimination rate constant in CD1 mouse muscle assessed as (12aR)-12-(Diphenylmethyl)-7-hydroxy-3,4,12,12a-tetrahydro-1H-[1,4]oxazino[3,4-c]pyrido[2,1-f ][1,2,4]triazine-6,8-dione level at 15 mg/kg, po administered as single dose measured up to 24 hrs by LC-MS/MS analysis; format: ADME, organism-based, Muscle tissue; conditions: in vivo
[17] = AUClast in CD1 mouse lung assessed as baloxavir acid level at 15 mg/kg, po administered as single dose by LC-MS/MS analysis; format: ADME, organism-based; conditions: in vivo
[18] = Ratio of Cmax in CD1 mouse lung to plasma assessed as baloxavir acid level at 15 mg/kg, po administered as single dose by LC-MS/MS analysis; format: ADME, organism-based; conditions: other tissue
[19] = Cmax in CD1 mouse plasma assessed as baloxavir acid level at 15 mg/kg, po administered as single dose measured up to 24 hrs by LC-MS/MS analysis; format: ADME, organism-based; parameters: dose 15 mg/kg, route oral; conditions: in vivo
[20] = Ratio of AUClast in CD1 mouse liver to plasma assessed as baloxavir acid level at 15 mg/kg, po administered as single dose measured up to 24 hrs by LC-MS/MS analysis; format: ADME, organism-based; conditions: other tissue
[21] = Tmax in CD1 mouse kidney assessed as baloxavir acid level at 15 mg/kg, po administered as single dose measured up to 24 hrs by LC-MS/MS analysis; format: ADME, organism-based; conditions: in vivo
[22] = Cmax in CD1 mouse kidney assessed as baloxavir acid level at 15 mg/kg, po administered as single dose measured up to 24 hrs by LC-MS/MS analysis; format: ADME, organism-based; parameters: dose 15 mg/kg, route oral; conditions: in vivo
[23] = Tmax in CD1 mouse lung assessed as baloxavir acid level at 15 mg/kg, po administered as single dose measured up to 24 hrs by LC-MS/MS analysis; format: ADME, organism-based; conditions: in vivo

## COC(=O)OCOc1c2n(ccc1=O)N(C(c1ccccc1)c1ccccc1)[C@@H]1COCCN1C2=O
[1]
  selectivity ratio at 24 h: 0.9
[2]
  t1/2: 1.58 h
[3]
  AUClast: 2746 ng·h/g
[4]
  AUC: 2861 ng·h/g
[5]
  Cmax: 12775 ng/g
[6]
  AUC: 34838 ng·h/g
[7]
  Cmax: 5260 ng/g
[8]
  MRTlast: 2.5 h
[9]
  Ratio AUC: 3.38
[10]
  Ratio AUC: 2.53
[11]
  Tmax: 0.5 h
[12]
  AUClast: 10575 ng·h/g
[13]
  Kel: 0.54 h⁻¹
[14]
  t1/2: 1.77 h
[15]
  AUClast: 4545 ng·h/g
[16]
  Kel: 0.4 h⁻¹

## COC(=O)OCOc1c2n(ccc1=O)N([C@@H]1c3ccccc3SCc3c1ccc(F)c3F)[C@@H]1COCCN1C2=O [BALOXAVIR MARBOXIL]
[17]
  AUClast: 11909 ng·h/g
[18]
  Ratio: 10.8
[19]
  Cmax: 0.0885 µg/mL
[20]
  Ratio AUC: 189
[21]
  Tmax: 2 h
[22]
  Cmax: 2998 ng/g
[23]
  Tmax: 2 h
